Reference: publication PMC8956739, “A synthetic lipopeptide targeting top-priority multidrug-resistant Gram-negative pathogens” (Nature Communications, 2022)
≈ marks a conversion by molar mass, not a printed value. Where “and” joins values, the source holds several entries; their conditions need not be identical. Identical values can stand only once. Residues, ends and D or L forms follow the SMILES beside them.

Legend:
A. baumannii FADDI-AB034 = type: cell-based, Acinetobacter baumannii; conditions: FADDI-AB034
Procedure: (§1) MICs were determined in cation-adjusted Mueller–Hinton broth (CaMHB) by the broth micro-dilution method against ATCC strains and clinical isolates. MICs in the presence of Survanta® were determined as described above against P. aeruginosa ATCC 27853. In the 100 μL of fresh CaMHB containing polymyxins, 10% Survanta® (v/v, 2.5 mg/mL phospholipids) was added. MICs in the presence and absence of Survanta® were compared to determine the effect of binding to lung surfactant on the antibacterial activity of polymyxins.

A. baumannii FADDI-AB030 = type: cell-based, Acinetobacter baumannii; conditions: FADDI-AB030
Procedure: as §1

A. baumannii ATCC 19606 = type: cell-based, Acinetobacter baumannii; conditions: ATCC 19606
Procedure: as §1

[1] = test system: K. pneumoniae FADDI-KP065; type: cell-based, Klebsiella pneumoniae; conditions: FADDI-KP065
Procedure: as §1

[2] = test system: K. pneumoniae FADDI-KP032; type: cell-based, Klebsiella pneumoniae; conditions: FADDI-KP032
Procedure: as §1

P. aeruginosa ATCC 27853 [3] = type: cell-based, Pseudomonas aeruginosa; conditions: ATCC 27853
Procedure: as §1

[4] = test system: P. aeruginosa FADDI-PA038; type: cell-based, Pseudomonas aeruginosa; conditions: FADDI-PA038
Procedure: as §1

[5] = test system: P. aeruginosa FADDI-PA025; type: cell-based, Pseudomonas aeruginosa; conditions: FADDI-PA025
Procedure: as §1

Swiss mice, kidney = assay: Nephrotoxicity in mice (kidney histopathology); type: in vivo, mouse; conditions: for Kidney histopathology (SQS Score): 72 mg/kg/d subcutaneously in six divided doses every 2 h, n = 3; for Kidney histopathology, mice with the SQS score: mouse, in vivo
Procedure: The experimental methodology has been previously reported by our group. Briefly, individual lipopeptide solutions were prepared in sterile saline (6 mg/mL). Swiss mice (female, 7-week-old, 22–28 g) were subcutaneously administered at 12 mg/kg in, 6 doses every 2 h to reach a total dose of 72 mg/kg (n = 3). For high-dose nephrotoxicity experiments, mice were intraperitoneally administered at 20 or 25 mg/kg, in 6 doses every 2 h to reach a total dose of 120 mg/kg (n = 6) or 150 mg/kg (n = 3). At 20 h after the last dose, the right kidney from each mouse was collected and placed in 10% buffered (pH 7.4) formalin (Sigma-Aldrich, Castle Hill, NSW, Australia). The kidneys were subjected to histological examination at the Australian Phenomics Network-Histopathology and Organ Pathology (University of Melbourne, Parkville, VIC, Australia), who was blind to the treatment groups.

P. aeruginosa ATCC 27853 [6] = assay: Neutropenic mouse bloodstream infection model; type: in vivo; conditions: single IV dose 4 mg/kg; for Log10 CFU/mL blood at 4 h, Mean / Δlog10 CFU/mL blood (mean) / Log10 CFU/mL blood at 4 h, single mouse: 4 h; for Δlog10 CFU/mL blood (mean): treated minus control, mean of replicates; for Δlog10 CFU/mL blood (mean) / Log10 CFU/mL blood at 4 h, single mouse / Delta Log10 CFU/mL blood at 4 h, single mouse: 4 mg/kg; for Delta Log10 CFU/mL blood at 4 h, single mouse: treated mouse minus mean of vehicle mice
Procedure: The experimental methodology for the neutropenic mouse bloodstream infection model was described previously. Briefly, 7-week-old female Swiss mice (22–28 g) were rendered neutropenic by intraperitoneal administration of cyclophosphamide, 4 days (150 mg/kg) and 1 day (100 mg/kg) prior to inoculation. Bloodstream infection was established by intravenous administration of a 50 µL bolus of early log-phase bacterial suspension (4 × 10^8 CFU/mL). Lipopeptide solutions were prepared at 1 mg/mL (free base) in sterile saline. At 2 h after inoculation, mice (n = 3) were injected intravenously with lipopeptide solution at 4 mg/kg (free base) or saline control. At 0 and 4 h after administration, blood was collected, diluted serially in sterile saline, and plated on nutrient agar plates. Agar plates were incubated at 37 °C overnight for bacterial colony counting and the bacterial load in the blood (log10 CFU/mL) in each mouse was calculated. In vivo efficacy was calculated as the difference of the log10 CFU/mL blood values between the treated mice and the saline-treated mice at 4 h post dosing (Δlog10 CFU/mL blood = log10 [treated] CFU/mL blood − log10[control] CFU/mL blood).

| SMILES | MIC A. baumannii FADDI-AB034 (A. baumannii FADDI-AB034) | MIC A. baumannii FADDI-AB030 (A. baumannii FADDI-AB030) | MIC A. baumannii ATCC 19606 (A. baumannii ATCC 19606) | MIC K. pneumoniae FADDI-KP065 [1] | MIC K. pneumoniae FADDI-KP032 [2] | MIC P. aeruginosa ATCC 27853 (P. aeruginosa ATCC 27853 [3]) | MIC P. aeruginosa FADDI-PA038 [4] | MIC P. aeruginosa FADDI-PA025 [5] | Kidney histopathology (SQS Score) (Swiss mice, kidney) | Kidney histopathology, mice with the SQS score (Swiss mice, kidney) | Log10 CFU/mL blood at 4 h, Mean (P. aeruginosa ATCC 27853 [6]) | Δlog10 CFU/mL blood (mean) (P. aeruginosa ATCC 27853 [6]) | Log10 CFU/mL blood at 4 h, single mouse (P. aeruginosa ATCC 27853 [6]) | Delta Log10 CFU/mL blood at 4 h, single mouse (P. aeruginosa ATCC 27853 [6]) |
| --- | --- | --- | --- | --- | --- | --- | --- | --- | --- | --- | --- | --- | --- | --- |
| CCCCCCCC(=O)N[C@@H](CCN)C(=O)N[C@H](C(=O)N[C@@H](CCN)C(=O)N[C@H]1CCNC(=O)[C@H]([C@@H](C)O)NC(=O)[C@H](CCN)NC(=O)[C@H](CCN)NC(=O)[C@H](C)NC(=O)[C@@H](CC(C)C)NC(=O)[C@H](CCN)NC1=O)[C@@H](C)O [Lipopeptide F124] (HELM PEPTIDE1{[CCCCCCCC(=O)[*:2]].[Dab].T.[Dab].[Dab].[Dab].[dL].A.[Dab].[Dab].T}$PEPTIDE1,PEPTIDE1,5:R3-11:R2$$$V2.0) | 0.5 µg/mL (≈ 0.449 µM) | 1 µg/mL (≈ 0.898 µM) | 1 µg/mL (≈ 0.898 µM) | <0.125 µg/mL | 0.25 µg/mL (≈ 0.225 µM) | 0.5 µg/mL (≈ 0.449 µM) | 0.5 µg/mL (≈ 0.449 µM) | >32 µg/mL | 0 (SQS 0 = no significant change (overall score, <1)) | 3/3 | 4.53 Log10 CFU/mL blood | −2.92 log10 CFU/mL blood | 4.71 Log10 CFU/mL blood and 4.61 Log10 CFU/mL blood and 4.26 Log10 CFU/mL blood | -2.74 Log10 CFU/mL blood and -2.83 Log10 CFU/mL blood and -3.19 Log10 CFU/mL blood |
| CCCCCCCC(=O)N[C@@H](CCN)C(=O)N[C@H](C(=O)N[C@@H](CCN)C(=O)N[C@H]1CCNC(=O)[C@H]([C@@H](C)O)NC(=O)[C@H](CCN)NC(=O)[C@H](CCN)NC(=O)[C@H]([C@@H](C)O)NC(=O)[C@@H](Cc2ccccc2)NC(=O)[C@H](CCN)NC1=O)[C@@H](C)O [Lipopeptide F224] (HELM PEPTIDE1{[CCCCCCCC(=O)[*:2]].[Dab].T.[Dab].[Dab].[Dab].[dF].T.[Dab].[Dab].T}$PEPTIDE1,PEPTIDE1,5:R3-11:R2$$$V2.0) | 0.5 µg/mL (≈ 0.425 µM) | 0.25 µg/mL (≈ 0.212 µM) | 1 µg/mL (≈ 0.849 µM) | <0.125 µg/mL | 0.5 µg/mL (≈ 0.425 µM) | 1 µg/mL (≈ 0.849 µM) | 0.5 µg/mL (≈ 0.425 µM) | 16 µg/mL (≈ 13.6 µM) | 0 (SQS 0 = no significant change (overall score, <1)) | 3/3 | 4.07 Log10 CFU/mL blood | −3.38 log10 CFU/mL blood | 4.08 Log10 CFU/mL blood and 4.03 Log10 CFU/mL blood and 4.10 Log10 CFU/mL blood | -3.37 Log10 CFU/mL blood and -3.42 Log10 CFU/mL blood and -3.35 Log10 CFU/mL blood |
| CCCCCCCC(=O)N[C@@H](CCN)C(=O)N[C@H](C(=O)N[C@@H](CCN)C(=O)N[C@H]1CCNC(=O)[C@H]([C@@H](C)O)NC(=O)[C@H](CCN)NC(=O)[C@H](CCN)NC(=O)[C@H](C(C)C)NC(=O)[C@@H](CC(C)C)NC(=O)[C@H](CCN)NC1=O)[C@@H](C)O [Lipopeptide F225] (HELM PEPTIDE1{[CCCCCCCC(=O)[*:2]].[Dab].T.[Dab].[Dab].[Dab].[dL].V.[Dab].[Dab].T}$PEPTIDE1,PEPTIDE1,5:R3-11:R2$$$V2.0) | 0.25 µg/mL (≈ 0.219 µM) | 0.25 µg/mL (≈ 0.219 µM) | 0.5 µg/mL (≈ 0.438 µM) | <0.125 µg/mL | <0.125 µg/mL | 1 µg/mL (≈ 0.876 µM) | 1 µg/mL (≈ 0.876 µM) | 4 µg/mL (≈ 3.5 µM) | 0 (SQS 0 = no significant change (overall score, <1)) | 3/3 | 4.59 Log10 CFU/mL blood | −2.86 log10 CFU/mL blood | 4.22 Log10 CFU/mL blood and 4.78 Log10 CFU/mL blood (2×) | -3.23 Log10 CFU/mL blood and -2.67 Log10 CFU/mL blood (2×) |
| CCCCCCCC(=O)N[C@@H](CCN)C(=O)N[C@H](C(=O)N[C@@H](CCN)C(=O)N[C@H]1CCNC(=O)[C@H]([C@@H](C)O)NC(=O)[C@H](CCN)NC(=O)[C@H](CCN)NC(=O)[C@H]([C@@H](C)O)NC(=O)[C@@H](CCCC)NC(=O)[C@H](CCN)NC1=O)[C@@H](C)O [Lipopeptide F226] (HELM PEPTIDE1{[CCCCCCCC(=O)[*:2]].[Dab].T.[Dab].[Dab].[Dab].[CCCC[C@@H](N[*:1])C(=O)[*:2]].T.[Dab].[Dab].T}$PEPTIDE1,PEPTIDE1,5:R3-11:R2$$$V2.0) | 1 µg/mL (≈ 0.875 µM) | 0.5 µg/mL (≈ 0.437 µM) | 2 µg/mL (≈ 1.75 µM) | <0.125 µg/mL | <0.125 µg/mL | 1 µg/mL (≈ 0.875 µM) | 1 µg/mL (≈ 0.875 µM) | 16 µg/mL (≈ 14 µM) | +1 (SQS + 1 = mild damage (overall score, 1 to <15)) | 1/3 | 4.20 Log10 CFU/mL blood | −3.24 log10 CFU/mL blood | 4.01 Log10 CFU/mL blood and 4.55 Log10 CFU/mL blood and 4.05 Log10 CFU/mL blood | -3.43 Log10 CFU/mL blood and -2.90 Log10 CFU/mL blood and -3.40 Log10 CFU/mL blood |
| CCCCCCCC(=O)N[C@@H](CCN)C(=O)N[C@H](C(=O)N[C@@H](CCN)C(=O)N[C@H]1CCNC(=O)[C@H]([C@@H](C)O)NC(=O)[C@H](CCN)NC(=O)[C@H](CCN)NC(=O)[C@H](CO)NC(=O)[C@@H](CC(C)C)NC(=O)[C@H](CCN)NC1=O)[C@@H](C)O [Lipopeptide F227] (HELM PEPTIDE1{[CCCCCCCC(=O)[*:2]].[Dab].T.[Dab].[Dab].[Dab].[dL].S.[Dab].[Dab].T}$PEPTIDE1,PEPTIDE1,5:R3-11:R2$$$V2.0) | 4 µg/mL (≈ 3.54 µM) | 4 µg/mL (≈ 3.54 µM) | 8 µg/mL (≈ 7.08 µM) | 0.25 µg/mL (≈ 0.221 µM) | 0.25 µg/mL (≈ 0.221 µM) | 0.5 µg/mL (≈ 0.443 µM) | >32 µg/mL | >32 µg/mL | 0 (SQS 0 = no significant change (overall score, <1)) | 3/3 | 6.47 Log10 CFU/mL blood | −1.04 log10 CFU/mL blood | 6.74 Log10 CFU/mL blood and 5.57 Log10 CFU/mL blood and 7.10 Log10 CFU/mL blood | -0.77 Log10 CFU/mL blood and -1.95 Log10 CFU/mL blood and -0.41 Log10 CFU/mL blood |
